Data on 21 compounds can be found in BindingDB's records for doi:10.1021/cb400371r (University of Konstanz, 2013).

The target of test [1] is T1, Fucose-binding lectin PA-IIL (Pseudomonas aeruginosa (strain ATCC 15692 / DSM 22644 / CIP 104116 / JCM 14847 / LMG 12228 / 1C / PRS 101 / PAO1), UniProt Q9HYN5).
For test [2], the target named is T1, Fucose-binding lectin PA-IIL. This is another data set of the same source.

T1 sequence (Q9HYN5 whole entry): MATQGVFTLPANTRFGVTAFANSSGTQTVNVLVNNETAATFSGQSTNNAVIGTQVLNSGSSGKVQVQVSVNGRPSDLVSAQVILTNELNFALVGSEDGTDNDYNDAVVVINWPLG

In the case of `COC1O[C@H](CN)[C@@H](O)C(O)[C@@H]1O` (some centres not stated) [LecB Inhibitor Amines 3e], the IC50 (usually the point on the concentration scale where inhibition reaches its midpoint) in test [1] came to 353 µM.

With `COC1O[C@H](CNCc2ccccc2)[C@@H](O)C(O)[C@@H]1O` (some centres not stated) [LecB Inhibitor Amines 3a], the IC50 in test [1] is 227 µM. As to `CC1O[C@@H](OCCNC(=S)Nc2ccc(-c3c4ccc(=O)cc-4oc4cc(O)ccc34)c(C(=O)O)c2)[C@@H](O)C(O)[C@@H]1O` (some centres not stated) [LecB Inhibitor Ligand 6], the EC50 (usually the midpoint of the concentration-response curve) in test [2] stood at 0.697 µM. The IC50 in test [1] was found to be 2.74 µM.

In test [1], `COC1O[C@H](Cn2cc(-c3ccccc3)nn2)[C@@H](O)C(O)[C@@H]1O` (some centres not stated) [LecB Inhibitor Triazoles 2c] registered an IC50 of 373 µM. On to `COC1O[C@H](CNS(=O)(=O)/C=C/c2ccccc2)[C@@H](O)C(O)[C@@H]1O` (some centres not stated) [LecB Inhibitor Sulfonamides 5g], for which the IC50 in test [1] is 86.9 µM. This IC50 lies about 4.3-fold lower than the previous one. The same measure, in the same setting: the same measure for `COC1O[C@H](Cn2cc(-c3ccc(C)cc3)nn2)[C@@H](O)C(O)[C@@H]1O` (some centres not stated) [LecB Inhibitor Triazoles 2e]: 294 µM.

In the case of `COC1O[C@H](CNS(=O)(=O)c2ccc([N+](=O)O)cc2)[C@@H](O)C(O)[C@@H]1O` (some centres not stated) [LecB Inhibitor Sulfonamides 5d], in test [1], the IC50 came out at 36.1 µM. `COC1O[C@H](CNC(=O)c2cc([N+](=O)O)cc([N+](=O)O)c2)[C@@H](O)C(O)[C@@H]1O` (some centres not stated) [LecB Inhibitor Amides 4d] returned an IC50 in test [1] of 121 µM. Still for that read-out and setting: the result for `COC1O[C@H](CNCc2ccc(Cl)cc2)[C@@H](O)C(O)[C@@H]1O` (some centres not stated) [LecB Inhibitor Amines 3d] reads 212 µM; that for `COC1O[C@H](Cn2cc(-c3cccc(C)c3)nn2)[C@@H](O)C(O)[C@@H]1O` (some centres not stated) [LecB Inhibitor Triazoles 2d], 279 µM. The same measure, in the same setting: the result for `COC1O[C@H](Cn2cc(CO)nn2)[C@@H](O)C(O)[C@@H]1O` (some centres not stated) [LecB Inhibitor Triazoles 2a] reads 578 µM.

Compound `COC1O[C@H](CNS(=O)(=O)c2ccc(C)cc2)[C@@H](O)C(O)[C@@H]1O` (some centres not stated) [LecB Inhibitor Sulfonamides 5b] yielded an IC50 in test [1] of 49.7 µM. `COC1O[C@H](Cn2cc(CCc3ccccc3)nn2)[C@@H](O)C(O)[C@@H]1O` (some centres not stated) [LecB Inhibitor Triazoles 2b]: in test [1], the IC50 came out at 264 µM.

For `COC1O[C@H](CNCc2ccc(C#N)cc2)[C@@H](O)C(O)[C@@H]1O` (some centres not stated) [LecB Inhibitor Amines 3c], in test [1], the IC50 worked out at 115 µM. On the same count and under the same terms, the result for `COC1O[C@H](CNCc2ccc([N+](=O)O)cc2)[C@@H](O)C(O)[C@@H]1O` (some centres not stated) [LecB Inhibitor Amines 3b] reads 117 µM; that for `COC1O[C@H](CNC(=O)Cc2ccccc2)[C@@H](O)C(O)[C@@H]1O` (some centres not stated) [LecB Inhibitor Amides 4e], 73.8 µM; that for `COC1O[C@H](Cn2cc(-c3ccc(F)cc3)nn2)[C@@H](O)C(O)[C@@H]1O` (some centres not stated) [LecB Inhibitor Triazoles 2g], 240 µM. Consider `COC1O[C@H](CNC(=O)C(c2ccccc2)c2ccccc2)[C@@H](O)C(O)[C@@H]1O` (some centres not stated) [LecB Inhibitor Amides 4f], for which the IC50 in test [1] is 161 µM.

In test [1], `COC1O[C@H](CNS(=O)(=O)c2ccc(Br)cc2)[C@@H](O)C(O)[C@@H]1O` (some centres not stated) [LecB Inhibitor Sulfonamides 5c] showed an IC50 of 20.9 µM. This IC50 lies about 7.7-fold lower than the previous one.

For the compound `COC1O[C@H](CNC(=O)c2ccc([N+](=O)O)cc2)[C@@H](O)C(O)[C@@H]1O` (some centres not stated) [LecB Inhibitor Amides 4c], in test [1], the IC50 was 75.8 µM. With `COC1O[C@H](CNC(C)=O)[C@@H](O)C(O)[C@@H]1O` (some centres not stated) [LecB Inhibitor Amides 4a], the IC50 in test [1] was found to be 281 µM.
